Reference: US20230303577A1, “TEMOZOLOMIDE ANALOGS AND METHODS OF USE” (St. John's Cancer Institute, priority 2020, published 2023)
Read-outs that look alike come from different tables or passages of the source.

Columns and labels:
U87 cells = assay: U87 subcutaneous flank xenograft GBM model; assay type: in vivo, SCID mice; conditions: 20 mg/kg orally, once daily then every other day, 14 days
Protocol: A suspension of U87 cells was prepared in 1×HBSS, pH 7.4 and mixed with an equal volume (1:1) of ice cold Matrigel®. Then, 0.1 mL of the cell suspension containing 5×10^6 cells was injected subcutaneously using a 22-gauge needle into the flank region of SCID mice. Animals were monitored daily during the period between inoculation and study initiation. Treatment was started when the average tumor size reached approximately ˜100 mm^3. The test (TP3) and Reference compound (TMZ) were administered orally at 20 mg/kg at a dose volume of 10 mL/Kg. The exact dose was administered based on individual animal body weight recorded during the study period. The TP3 and TMZ treatments were scheduled for once daily dosing for 14 days. However, the dose frequency had to be reduced from once daily to every other day, due to a 10-14% loss of body weight seen in the treated mice from Day 9 until study completion (FIG. 11D). The control group was administered vehicle alone. The test and reference compounds were formulated in 0.4% (v/v) Tween 80, 2% (v/v) Glycerol and 97.6% (v/v) of 30% (w/v) Captisol (SPECD). Number of mice per treatment cohort=8. Tumor growth was measured twice weekly using a digital Vernier caliper.

[1] = BBB permeability, cassette intravenous dosing; assay type: in vivo, male CD-1 mice; conditions: cassette IV 5 mg/kg; for % Brain / % Plasma: 5 min; for concentration at 5 min / Kp at 5 min: male, CD-1, mouse; for concentration at 5 min: 10% DMSO in PBS; for Kp at 5 min: brain/plasma
Protocol: BBB permeability of the compounds was tested in male CD-1@IGS mice using cassette intravenous dosing (Table 7 and FIGS. 6A and 6B). There were three animals in each group, given a dose of 5 mg/kg formulated in 10% DMSO in PBS (v/v) for 5 minutes. The endpoint was quantifying the parent compound using LC-MS/MS. Plasma samples (50 μl) were immediately mixed with 25 μl of H3PO4 (8.5%). Then 225 μl of internal standard (IS; 400 ng/ml meldonium in methanol) was added. After mixing by pipetting and centrifuging for 4 min at 6000 rpm, 2 μl of each supernatant was injected into LC-MS/MS system. Brain samples (100 mg±1 mg) were immediately mixed with 100 μl H3PO4 (25%) and zirconium oxide beads (115 mg±5 mg). Then 400 μl of IS solution was added and samples were disperse using a bullet blender homogenizer for 30 seconds at speed 8. The samples were centrifuged for 4 min at 14,000 rpm and 2 μl of each supernatant was injected into LC-MS/MS system.

A172 = assay: cells; conditions: Homo sapiens, A 172, 72 h, read-out: IC50, 72 h
Protocol: The effect of selected compounds on glioma cells viability was determined. The cells were plated at 2000 cells/well in 96 well plates. The day after, cells were treated with various concentrations of temozolomide or VMY-TP analogs.
Activity of TP-RGD was assessed in glioma cell cultures, as described in Example 11.

[2] = background statement; cited from earlier work
U251 = assay: cells; conditions: Homo sapiens, U-251, 72 h, read-out: IC50 U251 cell proliferation (BrdU ELISA)
Protocol: U87 cells were seeded at the density of 2,000 cells/well in 96-well plates and incubated overnight. The day after, cells were treated with various concentrations of Temozolomide or analogs for 72 hours. The BrdU ELISA proliferation assay was performed according to the manufacturer's instructions (Roche, #11647229001). Briefly, 20 μl of diluted BrdU labelling reagent was added to each well, to a final concentration of 10 μM BrdU per well. The cells were then incubated at 37° C. for 24 hours. Following this incubation, the labeling medium was aspirated from each well and 200 μl of Roche FixDenat fixing buffer was added. The plates were then incubated at 25° C. for 30 minutes. The fixing solution was removed, and 100 μl of Anti-BrdU-POD antibody was added to each well and incubated again at 25° C. for 90 minutes. Wells were rinsed three times with 200 μl of PBS, then 100 μl of Roche Substrate solution was added to each well. Following a 25 minute incubation at room temperature, the absorbance of each plate was read at 370 nm (reference wavelength: approx. 492 nm) on a Spectramax® i3x microplate reader.
The effect on U251 cell proliferation after 72 hours of treatment was also assessed using the BrdU ELISA cell proliferation assay as described in Example 11.

U87-Luc = assay: Orthotopic U87-Luc human glioblastoma tumor xenograft model; assay type: in vivo, Athymic Nude mice; conditions: 10 mg/kg oral gavage
Protocol: Animal studies were performed in accordance with Translational Drug Development, LLC IACUC-approved protocols. Intracranial tumors were generated by injecting 3×10^5 U87-Luc cells in […] of growth media into the right corpus striatum (1 mm anterior and 2 mm lateral to the bregma, depth of 3 mm) of Athymic Nude (Crl:NU(NCr)-Foxn1nu) mice (Charles River, Hollister, CA). Treatment was initiated 7 days after injection. […] Oral gavage treatments were formulated in 10% PEG300 in PBS. Bioluminescence (Total ROI, photons/s) images were performed under anesthesia once weekly starting on Day 1 (7 days post inoculation of U87-Luc cells) and body weights were recorded twice weekly. […] Upon peri-morbidity or at study end, mice were euthanized, brain tumor was excised from right side of brain, and a wet weight was recorded. If tumor was not grossly identifiable, expected tumor-region of the brain was collected. Tissue was fixed in formalin for 48-72 hours and then stored in 70% Ethanol.
A minimum of 100 μL/mouse of whole blood was collected via submandibular survival bleed on Day 10 and Day 27 from 3 mice per group (selected by TD2) from Groups 1, 2 and 4 for assessment of hematological toxicity. Blood was placed in K2-EDTA microtainer tubes (Becton, Dickinson & Co.; Franklin Lakes, NJ) and mixed thoroughly before CBC analysis at TD2.

IC50 (A172) [µM]	IC50 (U251) [µM]	SMILES	tumor volume (U87 cells)	tumor weight (U87 cells)	% Brain [1] [%]	% Plasma [1] [%]	concentration at 5 min ([1]; brain, read-out: Brain Conc.) [ng/g]	Kp at 5 min [1]	concentration at 5 min ([1]; plasma, read-out: Plasma Conc) [ng/mL]	retention in the cerebral parenchyma [2] [%]	effect on body weight (U87-Luc; QD×5×4, compared to control)	day 22 mean BLI value (U87-Luc; QD×5×4, control 2.43E+08) [photon/s]
		CCCCCCNC(=O)c1ncn2c(=O)n(C)nnc12 [TP3, N-hexyl-3-methyl-4-oxo-3,4-dihydroimidazo[5,1-d][1,2,3,5]tetrazine-8-carboxamide]	significantly reduced	significantly reduced	20	80	2080	0.71	2920			
> 100	> 200	Cn1nnc2c(C(N)=O)ncn2c1=O [TMZ, temozolomide]			7	93	1290	0.23	5540	20	impacted body weight	1.87E+06
